The text below walks through data of PubChem BioAssay (NCI).

Holding throughout (assay): NCI anticancer screen, dose series, 48 h
Experiment [1] concerns 786-0 renal.
Experiment [2] deals with A549 NSCLC.
Experiment [3] has as its system HCC-2998 colon.
Experiment [4] has as its system K-562 leukemia.
Experiment [5] has as its system LOX IMVI melanoma.
Experiment [6] concerns M14 melanoma.
Experiment [7] has as its system MDA-MB-231 breast.
The subject of experiment [8] is MOLT-4 leukemia.
The test system of experiment [9] is SNB-19 CNS.
Experiment [10] concerns TK-10 renal.
Experiment [11] has as its system UACC-62 melanoma.
Experiment [12] deals with U251 CNS.
For experiment [13], the system named is BT-549 breast.

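Values below derive from 48-hour exposures of cells grown in 96-well plates, with endpoints linearly interpolated between the two concentrations bracketing the appropriate inhibition level. Abbreviation: GI50, concentration required for 50% inhibition of growth. TGI denotes the concentration required for complete inhibition of growth.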

For `CCCN(CCC)C(=O)c1c(Cl)c2cccnc2n2c(C)cnc12`, the TGI in [1], in [2], in [3], in experiment [4], in experiment [5] and in experiment [6] was over 100 µM each time. Also, the TGI in experiment [7], in experiment [8], in experiment [9], in experiment [10] and in experiment [11] was over 100 µM each time.

On to `CC(C)(C)N=c1n(C(C)(C)C)oc(=O)n1-c1ccccc1`, for which the TGI in experiment [1], in [2], in [4], in [5], in experiment [6] and in experiment [7] was over 50 µM each time. The TGI in [8], in experiment [9], in experiment [10], in experiment [12] and in experiment [11] was over 50 µM each time.

In the case of `CN(C)C(=O)Oc1ccc(C(=S)Nc2ccccc2)cc1Br`, the TGI in [1] was over 100 µM; in experiment [2], over 100 µM; in experiment [13] it was 68.7 µM; in [3] it was over 100 µM; in [4] it was over 100 µM; in experiment [5], 45.8 µM. The TGI in experiment [6] was 39.8 µM; in experiment [8], 38.1 µM; in [9], over 100 µM; in [12] it was over 100 µM; in [11], 74.4 µM.

Consider `Cc1ccccc1NC(=O)CSc1nnc(Cc2ccccc2)o1`, for which the TGI in experiment [1], in experiment [2], in experiment [3], in experiment [4], in experiment [5] and in experiment [6] was over 100 µM throughout. Moreover, the TGI in experiment [8], in experiment [10], in experiment [12] and in experiment [11] was over 100 µM throughout.

As for `COC(=O)CNCC1OC2OC(C)(C)OC2C1N=[N+]=[N-]` (configuration not stated), the TGI in experiment [1], in experiment [2], in [13], in [4], in experiment [5] and in [8] was over 100 µM in each case. In addition, the TGI in experiment [9], in experiment [10], in experiment [12] and in [11] was over 100 µM throughout.

With `COc1nc(OC)nc(Sc2ccc(Sc3ccc(Sc4nc(OC)nc(OC)n4)cc3)cc2)n1`, the TGI in experiment [1], in experiment [2], in experiment [3], in experiment [4], in experiment [5] and in experiment [6] was over 100 µM in each case. In addition, the TGI in experiment [8], in experiment [9], in experiment [10], in [12] and in [11] was over 100 µM each time.

Consider `CCCOP(=S)(N1CC1)N1CC1`, for which the TGI in experiment [1], in experiment [2], in experiment [3], in experiment [4], in experiment [5] and in experiment [6] was over 100 µM each time. Also, the TGI in experiment [8], in experiment [9], in experiment [10], in [12] and in experiment [11] was over 100 µM in each case.

Regarding `CCOC(=O)c1c(NC(=O)c2ccc(Br)cc2)sc2c1CCCC2`, the TGI in experiment [1], in experiment [2], in experiment [13], in [4], in experiment [6] and in [7] was over 100 µM each time. In addition, the TGI in experiment [8], in experiment [9], in experiment [10], in [12] and in experiment [11] was over 100 µM each time.

`COc1cc2c(cc1OCCCCN1CCN(CCCCOc3cc4c(cc3OC)C(=O)N3CCC[C@H]3C=N4)CC1)N=C[C@@H]1CCCN1C2=O`: the TGI in experiment [1] was 41.1 µM; in [2], over 100 µM; in experiment [13] it was 0.843 µM; in experiment [4], over 11.3 µM; in [5] it was over 100 µM; in experiment [6], 0.0936 µM. Moreover, the TGI in experiment [7] is 0.182 µM; in experiment [10], 0.263 µM; in experiment [12], over 100 µM; in [11], 0.0347 µM. The GI50 in experiment [5] was 0.0267 µM.

Take `CC(=O)NC1C(OCc2ccccc2)OC(CO)C(O)C1OCC(=O)N1CCCC1C(=O)NC(CCC(=O)NCCCCCNc1c2ccccc2nc2cccc([N+](=O)[O-])c12)C(N)=O` (configuration not stated): the TGI in [1] stood at 0.924 µM; in experiment [2] it was 0.137 µM; in [3], 0.027 µM; in experiment [4], 0.0475 µM; in [5] it was 0.733 µM; in experiment [6], 0.0591 µM. Besides, the TGI in experiment [7] was found to be 0.0426 µM; in [8] it was 4.55 µM; in [9], 0.493 µM; in experiment [10], 0.762 µM; in [12] it was 0.206 µM; in experiment [11], 0.0751 µM.

On to `Cc1ccc(F)c2c(=O)cc(-c3ccccc3)[nH]c12`, for which the TGI in experiment [1], in experiment [2], in [4], in experiment [5], in experiment [6] and in experiment [8] was over 100 µM each time. Also, the TGI in experiment [10], in [12] and in experiment [11] was over 100 µM in each case.

Consider `CC[C@H](C)[C@H]1NC(=O)[C@@H](NC(=O)[C@@H](CC(C)C)N(C)C(=O)C2CCCN2C(=O)[C@H](C)O)[C@@H](C)OC(=O)[C@H](Cc2ccccc2)N(C)C(=O)[C@@H]2CCCN2C(=O)[C@H](CC(C)C)NC(=O)[C@@H](C)C(=O)[C@H](C(C)C)OC(=O)C[C@@H]1O` (some centres not stated), for which the TGI in experiment [1] was 0.0119 µM; in experiment [13], under 0.00625 µM; in experiment [3], 0.00678 µM; in experiment [4] it was over 62.5 µM; in experiment [5] it was under 0.00625 µM; in experiment [6], 0.0257 µM. For the same compound, the TGI is over 62.5 µM in [8], under 0.00625 µM in experiment [9], 0.00848 µM in experiment [10] and under 0.00625 µM in [11].

Turning to `N#CCN(Cc1ccccc1)[C@@H]1CCC[C@]1(O)C#Cc1ccc2c(c1)OCO2`, the TGI in experiment [1] came to 29.2 µM; in [2] it was 34.1 µM; in experiment [3], 31.5 µM; in experiment [4] it was 60.4 µM; in [5], 30.9 µM; in experiment [6], 32 µM. Besides, the TGI in experiment [7] was found to be 36.1 µM; in [8] it was 57.1 µM; in experiment [9], 41.5 µM; in experiment [10], 57.2 µM; in experiment [12], 33.9 µM; in [11], 37.3 µM.

As to `CN(C)Cc1[nH]c2ccccc2c1C(=O)c1ccccc1`, the TGI in experiment [1], in experiment [2], in experiment [3], in experiment [4], in [6] and in [8] was over 100 µM throughout. The TGI in experiment [9], in experiment [10], in experiment [12] and in experiment [11] was over 100 µM throughout.

For the compound `COc1ccc(/C=C(\Cl)c2ccc(OC)cc2)cc1`, the TGI in experiment [1], in [2], in [3], in [4], in [5] and in experiment [6] was over 100 µM in each case. In addition, the TGI in experiment [8] was over 100 µM; in [9], over 100 µM; in experiment [10], over 100 µM; in [12] it was over 100 µM; in experiment [11] it was 99.1 µM.

`CC(=O)C1=NN(c2ccccc2)C2(S1)SC(c1ccccc1)(c1ccccc1)c1ccccc12` (configuration not stated): the TGI in experiment [1], in experiment [2], in experiment [3], in experiment [4], in [5] and in [6] was over 100 µM throughout. Moreover, the TGI in experiment [8] was over 100 µM; in [9] it was over 100 µM; in experiment [10], over 100 µM; in [12] it was over 100 µM; in experiment [11], 48.7 µM.

On to `N#Cc1c(N2CCOCC2)ncn(-c2ccc(Cl)cc2)c1=O`, for which the TGI in experiment [1], in [2], in experiment [13], in experiment [3], in experiment [4] and in experiment [5] was over 100 µM in each case. The TGI in experiment [6], in experiment [8], in experiment [9], in experiment [12] and in [11] was over 100 µM in each case.

With `COc1nc(C)nc2c1ncn2Cc1ccccc1`, the TGI in [1], in experiment [2], in [3], in experiment [4], in [5] and in [6] was over 100 µM in each case. In addition, the TGI in experiment [7], in experiment [9], in experiment [10], in [12] and in [11] was over 100 µM throughout.

`COc1ccc(C2C(Cl)C(=O)N2NC(=O)c2ccccc2O)cc1OC` (configuration not stated): the TGI in experiment [1], in experiment [2], in experiment [4], in experiment [5], in [6] and in experiment [8] was over 100 µM throughout. For the same compound, the TGI in [9], in experiment [10], in experiment [12] and in [11] was over 100 µM in each case.

Turning to `CC#Cc1c(C#CC)c(OC)c2c(c1OC)C(=O)c1ccccc1C2=O`, the TGI in experiment [1], in experiment [2], in [3], in experiment [4], in experiment [5] and in experiment [6] was over 100 µM each time. In addition, the TGI in [8] is over 100 µM; in experiment [9], 71.4 µM; in [10], over 100 µM; in experiment [12], 48 µM; in experiment [11], over 100 µM.

For the compound `O=C1c2ccccc2C(=O)c2c(O)c(NCCNCCO)cc(O)c21`, the TGI came to 14.1 µM in [1]; 13.5 µM in experiment [2]; 13.7 µM in experiment [3]; 10.4 µM in [4]; 15.5 µM in experiment [5]; 16 µM in [6]. For the same compound, the TGI in experiment [8] came out at 10.4 µM; in [9], 11.8 µM; in [10], 17.7 µM; in experiment [11], 23.8 µM.

In the case of `C=CCC1C2CCC(O[Si](C(C)C)(C(C)C)C(C)C)(C(C(=O)OC)C2)C1O` (configuration not stated), the TGI in experiment [1], in [2], in [4], in experiment [6], in [7] and in [8] was over 100 µM throughout. Further, the TGI in experiment [9], in [10], in experiment [12] and in experiment [11] was over 100 µM throughout.

`O=C1Cc2ccccc2CCc2ccsc21`: the TGI in experiment [1], in experiment [2], in experiment [3], in experiment [4], in experiment [5] and in [6] was over 100 µM each time. Also, the TGI in [8], in [9], in experiment [10] and in experiment [12] was over 100 µM each time.

In the case of `CC1(C)N=C(Oc2ccccc2)n2nccc2N1`, the TGI in experiment [1], in [2], in experiment [3], in experiment [4], in experiment [5] and in [6] was over 100 µM each time. Besides, the TGI in experiment [8], in experiment [9], in experiment [10], in [12] and in [11] was over 100 µM each time.

As to `COc1ccccc1Cn1[nH]c(=O)c2cc([N+](=O)[O-])ccc21`, the TGI in [1], in [2], in experiment [3], in experiment [4], in [5] and in [6] was over 100 µM throughout. The TGI in [7], in experiment [8], in [9], in experiment [10] and in experiment [11] was over 100 µM throughout.
